From ChEMBL document CHEMBL4376806, “Antibiotic Adjuvants: Make Antibiotics Great Again!” (2019) come the findings set out here.

In assay [1] the target is Beta-lactamase TEM (Escherichia coli) (UniProt P62593). Nature of the assay: Inhibition of beta-lactamase TEM-1 in Escherichia coli GN5482 assessed as potentiation of ceftazidime-induced antibacterial activity by measuring ceftazidime MIC (reference value: 4 ug/ml).
Assay [2] concerns Klebsiella pneumoniae. Nature of the assay: Inhibition of beta-lactamase TEM-2 in Klebsiella pneumoniae IP1 assessed as potentiation of ceftazidime-induced antibacterial activity by measuring ceftazidime MIC (reference value: 16 ug/ml).
Assay [3] has as its system Klebsiella pneumoniae. Nature of the assay: Inhibition of beta-lactamase TEM-4 in Klebsiella pneumoniae 25637 assessed as potentiation of ceftazidime-induced antibacterial activity by measuring ceftazidime MIC (reference value: 32 ug/ml).
In assay [4] the test system is Escherichia coli. Nature of the assay: Inhibition of beta-lactamase TEM-8 in Escherichia coli CF3 assessed as potentiation of ceftazidime-induced antibacterial activity by measuring ceftazidime MIC (reference value: 64 ug/ml).
Assay [5] concerns Klebsiella pneumoniae. Put plainly: Inhibition of Beta-lactamase SHV-2 in Klebsiella pneumoniae IP86 assessed as potentiation of ceftazidime-induced antibacterial activity by measuring ceftazidime MIC (reference value: 64 ug/ml).
Assay [6] concerns Escherichia coli. Nature of the assay: Inhibition of Beta-lactamase PER-1 in Escherichia coli KB10 assessed as potentiation of ceftazidime-induced antibacterial activity by measuring ceftazidime MIC (Rvb >64 ug/ml).
Assay [7] relates to MexAB/OprM (Pseudomonas aeruginosa (strain ATCC 15692 / DSM 22644 / CIP 104116 / JCM14847 / LMG 12228 / 1C / PRS 101 / PAO1)), P52477+P52002+Q51487 [UNDEFINED MUTATION]. Nature of the assay: Inhibition of MexAB/OprM nalB mutant in Pseudomonas aeruginosa PAO1 K1455 assessed as potentiation of erythromycin-induced antibacterial activity by measuring erythromycin MIC at 20 ug/ml incubated for 18 hrs by CLSI based broth microtitre dilution method (reference value: 256 ug/ml).
Sequence of MexAB/OprM (Pseudomonas aeruginosa (strain ATCC 15692 / DSM 22644 / CIP 104116 / JCM14847 / LMG 12228 / 1C / PRS 101 / PAO1)), P52477+P52002+Q51487 [UNDEFINED MUTATION] (P52002 whole entry, looked up, change not shown): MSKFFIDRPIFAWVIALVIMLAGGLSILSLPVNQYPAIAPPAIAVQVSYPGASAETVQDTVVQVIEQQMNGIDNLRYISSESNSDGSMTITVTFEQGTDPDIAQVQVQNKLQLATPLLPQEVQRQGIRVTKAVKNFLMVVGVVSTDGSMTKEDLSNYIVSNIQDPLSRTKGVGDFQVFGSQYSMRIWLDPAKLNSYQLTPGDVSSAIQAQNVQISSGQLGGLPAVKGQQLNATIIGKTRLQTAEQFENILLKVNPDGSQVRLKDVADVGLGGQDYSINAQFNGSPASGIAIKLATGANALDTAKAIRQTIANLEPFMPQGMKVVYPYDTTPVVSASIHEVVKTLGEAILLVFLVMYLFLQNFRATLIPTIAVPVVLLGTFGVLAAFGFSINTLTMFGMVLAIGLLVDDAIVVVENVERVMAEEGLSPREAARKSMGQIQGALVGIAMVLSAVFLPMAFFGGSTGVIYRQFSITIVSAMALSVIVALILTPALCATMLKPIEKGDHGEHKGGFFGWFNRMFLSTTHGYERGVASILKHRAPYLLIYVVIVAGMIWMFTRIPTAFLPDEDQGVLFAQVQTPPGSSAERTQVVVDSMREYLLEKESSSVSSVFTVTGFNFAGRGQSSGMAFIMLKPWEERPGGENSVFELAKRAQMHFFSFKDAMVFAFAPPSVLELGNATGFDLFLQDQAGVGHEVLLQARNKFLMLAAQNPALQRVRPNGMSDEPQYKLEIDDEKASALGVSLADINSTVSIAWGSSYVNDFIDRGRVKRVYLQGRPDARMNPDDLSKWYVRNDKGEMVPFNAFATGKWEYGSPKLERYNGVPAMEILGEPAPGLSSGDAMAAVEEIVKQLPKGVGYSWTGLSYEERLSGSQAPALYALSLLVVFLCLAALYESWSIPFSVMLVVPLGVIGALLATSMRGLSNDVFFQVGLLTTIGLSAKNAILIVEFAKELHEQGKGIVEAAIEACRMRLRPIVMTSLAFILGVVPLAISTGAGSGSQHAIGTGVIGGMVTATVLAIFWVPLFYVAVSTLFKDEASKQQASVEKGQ
Sequence of MexAB/OprM (Pseudomonas aeruginosa (strain ATCC 15692 / DSM 22644 / CIP 104116 / JCM14847 / LMG 12228 / 1C / PRS 101 / PAO1)), P52477+P52002+Q51487 [UNDEFINED MUTATION] (P52477 whole entry, looked up, change not shown): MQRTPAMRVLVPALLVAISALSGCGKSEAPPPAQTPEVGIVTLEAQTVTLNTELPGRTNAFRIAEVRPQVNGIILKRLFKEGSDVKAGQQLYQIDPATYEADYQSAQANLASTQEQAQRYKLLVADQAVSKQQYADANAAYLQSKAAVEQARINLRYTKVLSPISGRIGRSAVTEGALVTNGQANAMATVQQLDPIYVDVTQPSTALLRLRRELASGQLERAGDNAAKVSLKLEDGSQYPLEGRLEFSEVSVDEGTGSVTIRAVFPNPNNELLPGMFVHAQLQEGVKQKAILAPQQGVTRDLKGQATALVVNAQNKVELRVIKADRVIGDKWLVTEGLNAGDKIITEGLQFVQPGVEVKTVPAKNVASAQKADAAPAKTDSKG
Sequence of MexAB/OprM (Pseudomonas aeruginosa (strain ATCC 15692 / DSM 22644 / CIP 104116 / JCM14847 / LMG 12228 / 1C / PRS 101 / PAO1)), P52477+P52002+Q51487 [UNDEFINED MUTATION] (Q51487 whole entry, looked up, change not shown): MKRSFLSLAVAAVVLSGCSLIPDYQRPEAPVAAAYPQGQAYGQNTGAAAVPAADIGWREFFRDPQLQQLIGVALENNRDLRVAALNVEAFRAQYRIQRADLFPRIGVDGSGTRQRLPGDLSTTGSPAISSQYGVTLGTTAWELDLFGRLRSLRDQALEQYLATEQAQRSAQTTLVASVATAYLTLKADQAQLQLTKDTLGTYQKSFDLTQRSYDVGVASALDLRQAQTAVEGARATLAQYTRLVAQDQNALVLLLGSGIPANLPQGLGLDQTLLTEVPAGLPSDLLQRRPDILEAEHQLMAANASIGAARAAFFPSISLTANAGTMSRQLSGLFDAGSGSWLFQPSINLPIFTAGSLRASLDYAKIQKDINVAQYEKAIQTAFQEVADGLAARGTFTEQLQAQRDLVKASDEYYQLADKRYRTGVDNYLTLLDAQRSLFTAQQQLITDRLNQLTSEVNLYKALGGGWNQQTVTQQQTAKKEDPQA

For assay [8] the test system is unchanged. Put plainly: Inhibition of MexAB/OprM nalB mutant in Pseudomonas aeruginosa PAO1 K1455 assessed as potentiation of levofloxacin-induced antibacterial activity by measuring levofloxacin MIC at 20 ug/ml incubated for 18 hrs by CLSI based broth microtitre dilution method (reference value: 2 ug/ml).
Assay [9] has the same test system. Put plainly: Inhibition of MexAB/OprM nalB mutant in Pseudomonas aeruginosa PAO1 K1455 assessed as potentiation of novobiocin-induced antibacterial activity by measuring novobiocin MIC at 20 ug/ml incubated for 18 hrs by CLSI based broth microtitre dilution method (Rvb > 2048 ug/ml).
Assay [10] has the same test system. Nature of the assay: Inhibition of MexAB/OprM nalB mutant in Pseudomonas aeruginosa PAO1 K1455 assessed as potentiation of rifampin-induced antibacterial activity by […] at 20 ug/ml incubated for 18 hrs by CLSI based broth microtitre dilution method (reference value: 16 ug/ml).
Assay [11] shares this test system. Put plainly: Inhibition of MexAB/OprM nalB mutant in Pseudomonas aeruginosa PAO1 K1455 assessed as potentiation of tetracycline-induced antibacterial activity by measuring tetracycline MIC at 20 ug/ml incubated for 18 hrs by CLSI based broth microtitre dilution method (reference value: 64 ug/ml).
Assay [12] has the same test system. Put plainly: Inhibition of MexAB/OprM nalB mutant in Pseudomonas aeruginosa PAO1 K1455 assessed as potentiation of cefotaxime-induced antibacterial activity by measuring cefotaxime MIC at 20 ug/ml incubated for 18 hrs by CLSI based broth microtitre dilution method (reference value: 64 ug/ml).
The target of assay [13] is Beta-lactamase (Staphylococcus aureus) (UniProt P00807). The conditions noted are these: 01A400.
Sequence of Beta-lactamase (Staphylococcus aureus) (P00807 whole entry): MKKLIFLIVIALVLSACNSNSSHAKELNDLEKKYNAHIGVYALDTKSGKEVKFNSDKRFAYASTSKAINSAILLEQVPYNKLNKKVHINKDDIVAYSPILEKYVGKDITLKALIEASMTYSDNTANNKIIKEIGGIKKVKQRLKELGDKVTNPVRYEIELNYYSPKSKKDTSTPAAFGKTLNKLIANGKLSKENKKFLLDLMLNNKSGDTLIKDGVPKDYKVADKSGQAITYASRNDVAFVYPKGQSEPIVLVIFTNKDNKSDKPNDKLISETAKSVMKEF
Description: Inhibition of penicillinase in Staphylococcus aureus 01A400 assessed as potentiation of benzylpenicillin-induced antibacterial activity by measuring benzylpenicillin MIC at 3.12 ug/ml (Rvb = 200 ug/ml)
In assay [14] the test system is Staphylococcus epidermidis. The following applies: 01B116.
Description: Inhibition of beta-lactamase in Staphylococcus epidermidis 01B116 assessed as potentiation of benzylpenicillin-induced antibacterial activity by measuring benzylpenicillin MIC at 3.12 ug/ml (Rvb >25 ug/ml)
The next assay has as its system Haemophilus influenzae. The following applies: 54A042.
For the next assay, the system named is Bacteroides fragilis. The following applies: 78C004.
Assay [15] relates to Staphylococcus aureus. Put plainly: Potentiation of amikacin-induced antibacterial activity against Staphylococcus aureus 358 assessed as amikacin MIC at 64 ug/ml after 24 hrs by broth microdilution assay (reference value: 156.2 ug/ml). It counts as functional. The following applies: Staphylococcus aureus, 358, 24 h. In general terms: Broth dilution looks for growth in wells or tubes with falling amounts of substance.

The subject of assay [16] is Staphylococcus aureus. Nature of the assay: Potentiation of gentamicin-induced antibacterial activity against Staphylococcus aureus 358 assessed as gentamicin MIC at 64 ug/ml after 24 hrs by broth microdilution assay (reference value: 312.5 ug/ml). The assay is classed as functional. The following applies: Staphylococcus aureus, 358, 24 h.
In assay [17] the test system is Staphylococcus aureus. Put plainly: Potentiation of neomycin-induced antibacterial activity against Staphylococcus aureus 358 assessed as neomycin MIC at 64 ug/ml after 24 hrs by broth microdilution assay (reference value: 156.2 ug/ml). The assay is classed as functional. The following applies: Staphylococcus aureus, 358, 24 h.
For assay [18], the system named is Pseudomonas aeruginosa. Nature of the assay: Potentiation of amikacin-induced antibacterial activity against Pseudomonas aeruginosa 03 assessed as amikacin MIC at 32 ug/ml after 24 hrs by broth microdilution assay (reference value: 312.5 ug/ml). The assay is classed as functional. The following applies: Pseudomonas aeruginosa, 03, 24 h.
For assay [19], the system named is Pseudomonas aeruginosa. Nature of the assay: Potentiation of gentamicin-induced antibacterial activity against Pseudomonas aeruginosa 03 assessed as gentamicin MIC at 32 ug/ml after 24 hrs by broth microdilution assay (reference value: 625 ug/ml). The following applies: Pseudomonas aeruginosa, 03, 24 h. It counts as functional.
The test system of assay [20] is Escherichia coli. Put plainly: Potentiation of amikacin-induced antibacterial activity against Escherichia coli 27 assessed as amikacin MIC at 64 ug/ml after 24 hrs by broth microdilution assay (reference value: 156.2 ug/ml). The conditions noted are these: Escherichia coli, 27, 24 h. The assay is classed as functional.
The subject of assay [21] is Escherichia coli. Put plainly: Potentiation of gentamicin-induced antibacterial activity against Escherichia coli 27 assessed as gentamicin MIC at 64 ug/ml after 24 hrs by broth microdilution assay (reference value: 625 ug/ml). The conditions noted are these: Escherichia coli, 27, 24 h. It counts as functional.
Assay [22] deals with Escherichia coli. Nature of the assay: Potentiation of neomycin-induced antibacterial activity against Escherichia coli 27 assessed as neomycin MIC at 64 ug/ml after 24 hrs by broth microdilution assay (reference value: 312.5 ug/ml). It counts as functional. The following applies: Escherichia coli, 27, 24 h.

Each structure is given as a SMILES string. In brackets after ≈: the same amount, converted by molar mass.

Sequence of Beta-lactamase TEM (Escherichia coli) (P62593 whole entry): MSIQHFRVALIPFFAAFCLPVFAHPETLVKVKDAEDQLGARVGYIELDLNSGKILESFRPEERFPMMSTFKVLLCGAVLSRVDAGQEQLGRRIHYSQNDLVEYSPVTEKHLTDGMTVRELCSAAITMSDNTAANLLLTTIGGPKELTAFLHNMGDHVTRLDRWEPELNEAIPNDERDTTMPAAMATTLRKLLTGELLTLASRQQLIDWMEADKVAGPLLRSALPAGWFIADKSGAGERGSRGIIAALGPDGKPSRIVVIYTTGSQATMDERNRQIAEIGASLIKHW
Description for Bacteroides fragilis: Inhibition of beta-lactamase in Bacteroides fragilis 78C004 assessed as potentiation of benzylpenicillin-induced antibacterial activity by measuring benzylpenicillin MIC at 3.12 ug/ml (Rvb = 200 ug/ml)

As for `NC(=O)[C@@H]1CC[C@@H]2CN1C(=O)N2OS(=O)(=O)O`, the MIC is 0.5 µg/mL in assay [1]; 0.5 µg/mL with Klebsiella pneumoniae [2]; 0.5 µg/mL in the assay with Klebsiella pneumoniae [3]; 2 µg/mL with Escherichia coli [4]; 1 µg/mL in the assay with Klebsiella pneumoniae [5]; 4 µg/mL with Escherichia coli [6].
Consider `C[C@H]1[C@H]2CC[C@H]3[C@@H]4CC=C5C[C@@H](N(C)C)CC[C@]5(C)[C@H]4CC[C@]23CN1C`, for which the MIC in [7] came to 32 µg/mL; in assay [8] it was 0.25 µg/mL; in assay [9] it was 256 µg/mL; in [10] it was 2 µg/mL; in assay [11] it was 8 µg/mL; in assay [12] it was 8 µg/mL.
Consider `CC1(C)[C@H](C(=O)O)N2C(=O)C[C@H]2S1(=O)=O`, for which the MIC in [13] worked out at 1.56 µg/mL (≈ 6.69 µM); in [14], 1.56 µg/mL (≈ 6.69 µM); with Haemophilus influenzae, 1.56 µg/mL (≈ 6.69 µM); against Bacteroides fragilis, 3.12 µg/mL (≈ 13.4 µM).
Consider `CC1=CC(=O)c2ccccc2C1=O` [MENADIONE], for which the MIC with Staphylococcus aureus [15], in the assay on Staphylococcus aureus [16], in the assay on Staphylococcus aureus [17], with Pseudomonas aeruginosa [18], in the assay on Pseudomonas aeruginosa [19] and in the assay on Escherichia coli [20] was 2.4 µg/mL throughout. The MIC in the assay with Escherichia coli [21] and with Escherichia coli [22] was 2.4 µg/mL in each case.
